From ChEMBL document CHEMBL3352542, “Synthesis, biological evaluation and molecular modeling study of 2-(1,3,4-thiadiazolyl-thio and 4-methyl-thiazolyl-thio)-quinazolin-4-ones as a new class of DHFR inhibitors” (Bioorg Med Chem Lett, 2014)
Calls of active or inactive are those of the source. The rule behind the calls is not given here.

Legend:
OVCAR-5 = assay: Growth inhibition of human OVCAR5 cells at 10 uM after 48 hrs; format: functional
HCT-116 = assay: Growth inhibition of human HCT116 cells at 10 uM after 48 hrs; format: functional
HCT-15 = assay: Growth inhibition of human HCT15 cells at 10 uM after 48 hrs; format: functional
Dihydrofolate reductase = biological target: T1, Dihydrofolate reductase (Bos taurus, UniProt P00376); assay: Inhibition of bovine liver DHFR
T1 sequence (P00376 whole entry): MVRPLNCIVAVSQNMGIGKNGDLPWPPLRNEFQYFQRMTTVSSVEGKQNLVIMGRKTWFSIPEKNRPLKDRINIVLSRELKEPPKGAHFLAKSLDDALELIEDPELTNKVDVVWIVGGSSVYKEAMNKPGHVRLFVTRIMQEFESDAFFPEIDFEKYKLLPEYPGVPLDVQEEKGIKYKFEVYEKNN

HL-60(TB) = assay: Growth inhibition of human HL-60(TB) cells at 10 uM after 48 hrs; format: functional
K562 = assay: Growth inhibition of human K562 cells at 10 uM after 48 hrs; format: functional
NCI/ADR-RES = assay: Growth inhibition of human NCI-ADR-RES cells at 10 uM after 48 hrs; format: functional
A549 = assay: Growth inhibition of human A549 cells at 10 uM after 48 hrs; format: functional
RXF 393 = assay: Growth inhibition of human RXF393 cells at 10 uM after 48 hrs; format: functional
SN12C = assay: Growth inhibition of human SN12C cells at 10 uM after 48 hrs; format: functional
Escherichia coli = assay: Antimicrobial activity against Escherichia coli assessed as inhibition zone at 200 ug/disk after 24 hrs by disc-diffusion method; format: functional; settings: read-out: IZ
Pseudomonas aeruginosa = assay: Antimicrobial activity against Pseudomonas aeruginosa assessed as inhibition zone at 200 ug/disk after 24 hrs by disc-diffusion method; format: functional; settings: read-out: IZ
SNB-19 = assay: Growth inhibition of human SNB19 cells at 10 uM after 48 hrs; format: functional
SF-295 = assay: Growth inhibition of human SF295 cells at 10 uM after 48 hrs; format: functional
MDA-MB-435 = assay: Growth inhibition of human MDA-MB-435 cells at 10 uM after 48 hrs; format: functional
NCI-H460 = assay: Growth inhibition of human NCI-H460 cells at 10 uM after 48 hrs; format: functional
CAKI-1 = assay: Growth inhibition of human CAKI-1 cells at 10 uM after 48 hrs; format: functional
MDA-MB-231 = assay: Growth inhibition of human MDA-MB-231 cells at 10 uM after 48 hrs; format: functional
UO-31 = assay: Growth inhibition of human UO31 cells at 10 uM after 48 hrs; format: functional
LOX IMVI = assay: Growth inhibition of human LOXIMVI cells at 10 uM after 48 hrs; format: functional
Staphylococcus aureus [1] = assay: Antimicrobial activity against Staphylococcus aureus assessed as inhibition of visible growth after 24 hrs by disc-diffusion method; format: functional, organism-based
RPMI-8226 = assay: Growth inhibition of human RPMI8226 cells at 10 uM after 48 hrs; format: functional
ACHN = assay: Growth inhibition of human ACHN cells at 10 uM after 48 hrs; format: functional
CCRF-CEM = assay: Growth inhibition of human CCRF-CEM cells at 10 uM after 48 hrs; format: functional
PC-3 = assay: Growth inhibition of human PC3 cells at 10 uM after 48 hrs; format: functional
COLO 205 = assay: Growth inhibition of human COLO205 cells at 10 uM after 48 hrs; format: functional
SF-268 = assay: Growth inhibition of human SF268 cells at 10 uM after 48 hrs; format: functional
T47D = assay: Growth inhibition of human T47D cells at 10 uM after 48 hrs; format: functional
KM12 = assay: Growth inhibition of human KM12 cells at 10 uM after 48 hrs; format: functional
OVCAR-3 = assay: Growth inhibition of human OVCAR3 cells at 10 uM after 48 hrs; format: functional
NCI-H522 = assay: Growth inhibition of human NCI-H522 cells at 10 uM after 48 hrs; format: functional
Bacillus subtilis [2] = assay: Antimicrobial activity against Bacillus subtilis assessed as inhibition of visible growth after 24 hrs by disc-diffusion method; format: functional, organism-based
NCI-H23 = assay: Growth inhibition of human NCI-H23 cells at 10 uM after 48 hrs; format: functional
OVCAR-4 = assay: Growth inhibition of human OVCAR4 cells at 10 uM after 48 hrs; format: functional
Hs-578T = assay: Growth inhibition of human Hs 578T cells at 10 uM after 48 hrs; format: functional
786-0 = assay: Growth inhibition of human 786-0 cells at 10 uM after 48 hrs; format: functional
TK-10 = assay: Growth inhibition of human TK10 cells at 10 uM after 48 hrs; format: functional
SNB-75 = assay: Growth inhibition of human SNB75 cells at 10 uM after 48 hrs; format: functional
HOP-92 = assay: Growth inhibition of human HOP92 cells at 10 uM after 48 hrs; format: functional
MDA-MB-468 = assay: Growth inhibition of human MDA-MB-468 cells at 10 uM after 48 hrs; format: functional
SW-620 = assay: Growth inhibition of human SW620 cells at 10 uM after 48 hrs; format: functional
UACC-257 = assay: Growth inhibition of human UACC257 cells at 10 uM after 48 hrs; format: functional
Staphylococcus aureus [3] = assay: Antimicrobial activity against Staphylococcus aureus assessed as inhibition zone at 200 ug/disk after 24 hrs by disc-diffusion method; format: functional; settings: read-out: IZ
A498 = assay: Growth inhibition of human A498 cells at 10 uM after 48 hrs; format: functional
UACC-62 = assay: Growth inhibition of human UACC62 cells at 10 uM after 48 hrs; format: functional
BT-549 = assay: Growth inhibition of human BT549 cells at 10 uM after 48 hrs; format: functional
MCF7 = assay: Growth inhibition of human MCF7 cells at 10 uM after 48 hrs; format: functional
Malme-3M = assay: Growth inhibition of human MALME-3M cells at 10 uM after 48 hrs; format: functional
MOLT-4 = assay: Growth inhibition of human MOLT4 cells at 10 uM after 48 hrs; format: functional
Bacillus subtilis [4] = assay: Antimicrobial activity against Bacillus subtilis assessed as inhibition zone at 200 ug/disk after 24 hrs by disc-diffusion method; format: functional; settings: read-out: IZ
SF-539 = assay: Growth inhibition of human SF539 cells at 10 uM after 48 hrs; format: functional
NCI-H226 = assay: Growth inhibition of human NCI-H226 cells at 10 uM after 48 hrs; format: functional
OVCAR-8 = assay: Growth inhibition of human OVCAR8 cells at 10 uM after 48 hrs; format: functional
Candida albicans = assay: Antimicrobial activity against Candida albicans assessed as inhibition zone at 200 ug/disk after 24 hrs by disc-diffusion method; format: functional; settings: read-out: IZ
U-251 = assay: Growth inhibition of human U251 cells at 10 uM after 48 hrs; format: functional
HCC 2998 = assay: Growth inhibition of human HCC2998 cells at 10 uM after 48 hrs; format: functional
SK-MEL-5 = assay: Growth inhibition of human SK-MEL-5 cells at 10 uM after 48 hrs; format: functional
HT-29 = assay: Growth inhibition of human HT-29 cells at 10 uM after 48 hrs; format: functional
M14 = assay: Growth inhibition of human M14 cells at 10 uM after 48 hrs; format: functional
SR = assay: Growth inhibition of human SR cells at 10 uM after 48 hrs; format: functional

**Q.** How did the “growth inhibition (GI)” value (OVCAR-5) turn out when `Cc1ccc(-n2c(Sc3sc(N)nc3C)nc3ccc(Cl)cc3c2=O)cc1` was run?
**A.** inactive

**Q.** And the “growth inhibition (GI)” value (HCT-116)?
**A.** inactive

**Q.** And the “growth inhibition (GI)” value (HCT-15)?
**A.** inactive

**Q.** What about the IC50 (Dihydrofolate reductase) of the same compound?
**A.** 5 µM

**Q.** What about the “growth inhibition (GI)” value (HL-60(TB)) of the same compound?
**A.** inactive

**Q.** And the “growth inhibition (GI)” value (K562)?
**A.** inactive

**Q.** And the “growth inhibition (GI)” value (NCI/ADR-RES)?
**A.** inactive

**Q.** And the “growth inhibition (GI)” value (A549)?
**A.** inactive

**Q.** What about the “growth inhibition (GI)” value (RXF 393) of the same compound?
**A.** inactive

**Q.** And the “growth inhibition (GI)” value (SN12C)?
**A.** inactive

**Q.** And the zone of inhibition at 200 µg/disc (Escherichia coli)?
**A.** 8 mm

**Q.** What about the zone of inhibition at 200 µg/disc (Pseudomonas aeruginosa) of the same compound?
**A.** 8 mm

**Q.** What about the “growth inhibition (GI)” value (SNB-19) of the same compound?
**A.** inactive

**Q.** What about the “growth inhibition (GI)” value (SF-295) of the same compound?
**A.** inactive

**Q.** And the “growth inhibition (GI)” value (MDA-MB-435)?
**A.** inactive

**Q.** And the “growth inhibition (GI)” value (NCI-H460)?
**A.** inactive

**Q.** What about the “growth inhibition (GI)” value (CAKI-1) of the same compound?
**A.** inactive

**Q.** And the “growth inhibition (GI)” value (MDA-MB-231)?
**A.** inactive

**Q.** What about the “growth inhibition (GI)” value (UO-31) of the same compound?
**A.** inactive

**Q.** What about the “growth inhibition (GI)” value (LOX IMVI) of the same compound?
**A.** inactive

**Q.** What about the Activity (Staphylococcus aureus [1]) of the same compound?
**A.** Active

**Q.** And the “growth inhibition (GI)” value (RPMI-8226)?
**A.** inactive

**Q.** And the “growth inhibition (GI)” value (ACHN)?
**A.** inactive

**Q.** And the “growth inhibition (GI)” value (CCRF-CEM)?
**A.** inactive

**Q.** And the “growth inhibition (GI)” value (PC-3)?
**A.** inactive

**Q.** And the “growth inhibition (GI)” value (COLO 205)?
**A.** inactive

**Q.** What about the “growth inhibition (GI)” value (SF-268) of the same compound?
**A.** inactive

**Q.** And the “growth inhibition (GI)” value (T47D)?
**A.** inactive

**Q.** What about the “growth inhibition (GI)” value (KM12) of the same compound?
**A.** inactive

**Q.** What about the “growth inhibition (GI)” value (OVCAR-3) of the same compound?
**A.** inactive

**Q.** And the “growth inhibition (GI)” value (NCI-H522)?
**A.** inactive

**Q.** What about the Activity (Bacillus subtilis [2]) of the same compound?
**A.** Active

**Q.** And the “growth inhibition (GI)” value (NCI-H23)?
**A.** inactive

**Q.** And the “growth inhibition (GI)” value (OVCAR-4)?
**A.** inactive

**Q.** And the “growth inhibition (GI)” value (Hs-578T)?
**A.** inactive

**Q.** What about the “growth inhibition (GI)” value (786-0) of the same compound?
**A.** inactive

**Q.** And the “growth inhibition (GI)” value (TK-10)?
**A.** inactive

**Q.** What about the “growth inhibition (GI)” value (SNB-75) of the same compound?
**A.** inactive

**Q.** And the “growth inhibition (GI)” value (HOP-92)?
**A.** inactive

**Q.** And the “growth inhibition (GI)” value (MDA-MB-468)?
**A.** inactive

**Q.** And the “growth inhibition (GI)” value (SW-620)?
**A.** inactive

**Q.** What about the “growth inhibition (GI)” value (UACC-257) of the same compound?
**A.** inactive

**Q.** And the zone of inhibition at 200 µg/disc (Staphylococcus aureus [3])?
**A.** 18 mm

**Q.** And the “growth inhibition (GI)” value (A498)?
**A.** inactive

**Q.** And the “growth inhibition (GI)” value (UACC-62)?
**A.** inactive

**Q.** And the “growth inhibition (GI)” value (BT-549)?
**A.** inactive

**Q.** And the “growth inhibition (GI)” value (MCF7)?
**A.** inactive

**Q.** What about the “growth inhibition (GI)” value (Malme-3M) of the same compound?
**A.** inactive

**Q.** What about the “growth inhibition (GI)” value (MOLT-4) of the same compound?
**A.** inactive

**Q.** And the zone of inhibition at 200 µg/disc (Bacillus subtilis [4])?
**A.** 16 mm

**Q.** What about the “growth inhibition (GI)” value (SF-539) of the same compound?
**A.** inactive

**Q.** What about the “growth inhibition (GI)” value (NCI-H226) of the same compound?
**A.** inactive

**Q.** And the “growth inhibition (GI)” value (OVCAR-8)?
**A.** inactive

**Q.** What about the zone of inhibition at 200 µg/disc (Candida albicans) of the same compound?
**A.** 8 mm

**Q.** And the “growth inhibition (GI)” value (U-251)?
**A.** inactive

**Q.** What about the “growth inhibition (GI)” value (HCC 2998) of the same compound?
**A.** inactive

**Q.** And the “growth inhibition (GI)” value (SK-MEL-5)?
**A.** inactive

**Q.** What about the “growth inhibition (GI)” value (HT-29) of the same compound?
**A.** inactive

**Q.** And the “growth inhibition (GI)” value (M14)?
**A.** inactive

**Q.** What about the “growth inhibition (GI)” value (SR) of the same compound?
**A.** inactive
